Measured values published in patent US7605137B2, “Combination therapy comprising cloretazine” (priority 2004, dated 2009).
Entries after “also recorded” stand apart in the source; their conditions may differ. Like-named read-outs stand apart in the source and are kept apart here.

What was measured:
L1210 leukemia [1] = assay: In vivo antitumor activity of VNP40101M and AraC on ip L1210 leukemia (1×10^6 cells), survival; parameters: species or system CD2F1 mice; details: 1×10^6 L1210 cells ip; for Long-term Survivors (%): survival more than 60 days
Method: Eighty Female Balb/c×DBA/2 (CD2F1) mice were inoculated intraperitoneally (ip) on day 0 with 1×10^6 L1210 cells in 0.2 mL phosphate-buffered-saline (PBS). The mice were randomly divided into 6 groups; each group consisted of 10 mice. The animals were untreated or treated with a single bolus dose of VNP40101M at 5, or 10 mg/kg, ip, on day 1 with or without AraC (50 mg/kg, ip) on days 1, 3, 5, 7, and 9. Daring the experiments, mice were observed daily for survival. It was determined that mice that survive for more than 60 days after inoculation of L1210 cells might be regarded as long-term survivors. Kaplan-Meier plots were generated, and survival time of animals was analyzed using student T-test. Significance was defined as P<0.05.

L1210 leukemia [2] = assay: In vivo antitumor activity of VNP40101M and fludarabine on ip L1210 leukemia (3×10^6 cells), survival; parameters: species or system CD2F1 mice; details: 3×10^6 L1210 cells ip; for Long-term Survivors (%): survival more than 60 days
Method: Eighty Female Balb/c×DBA/2 (CD2F1) mice are inoculated intraperitoneally (ip) on day 0 with 3×10^6 L1210 cells in 0.2 mL phosphate-buffered-saline (PBS). The mice are randomly divided into 6 groups; each group consists of 10 mice. The animals are untreated or treated with a single bolus dose of VNP40101M at 5, or 10 mg/kg, ip, on day 1 with or without fludarabine (70 mg/kg, ip) on multiple days between days 1 to 9. During the experiments, mice are observed daily for survival. It is determined that mice that survive for more than 60 days after inoculation of L1210 cells might be regarded as long-term survivors. Kaplan-Meier plots are generated, and survival time of animals is analyzed using student T-test. Significance is defined as P<0.05.

L1210 leukemia [3] = assay: In vitro cytotoxicity of VNP40101M and AraC, cell viability assay (mitochondrial oxidoreductase activity); assay type: cell-based, murine; details: AraC and VNP40101M 0.75-6 uM
Method: The cytotoxicity of the combination of VNP40101M and Arac on L1210 leukemia was examined using a cell viability assay. Cells were exposed to VNP40101M, alone or in combination with various concentrations of AraC. After 72 hours, the remaining viable cells were quantified by measuring mitochondrial oxidoreductase activity. Concentrations of AraC and VNP40101M used were between 0.75 and 6 uM. Dose-effect analyses (combination index) showing combination effects of VNP40101M and AraC were analyzed.

[4] = system: L1210 leukemia (10^6 tumor cells) resistant to BCNU, cyclophosphamide, or melphalan; details: cited from earlier work
human U251 glioma = details: 10 mg/kg q2d×11 or 20 mg/kg q4d×6 IP; tumors staged to ~300 mg; cited from earlier work
[5] = system: murine M109 lung carcinoma; details: cited from earlier work
B16F10 melanoma = details: weekly IP, 10-60 mg/kg; cited from earlier work
[6] = system: human HTB177 lung (H460) carcinoma; details: weekly IP, 10-60 mg/kg; cited from earlier work
[7] = system: human WiDr colon carcinoma; details: weekly IP, 10-60 mg/kg; cited from earlier work
[8] = system: intra-cranially implanted L1210 leukemia; details: cited from earlier work
[9] = cited from earlier work
[10] = cited from earlier work; remark: listed apart in the source
[11] = cited from earlier work; remark: listed apart in the source
[12] = cited from earlier work; remark: listed apart in the source
[13] = system: advanced hematologic malignancies; details: cited from earlier work
[14] = VNP40101M 5 mg/kg ip single bolus day 1
[15] = VNP40101M 10 mg/kg ip single bolus day 1
[16] = single dose 80-100 mg/kg IP, tumor-bearing mice

Nc1ccn([C@@H]2O[C@H](CO)[C@@H](O)[C@@H]2O)c(=O)n1 [AraC, Cytarabine, reference compound]
Long-term Survivors (%) (L1210 leukemia [1]; AraC 50 mg/kg ip days 1, 3, 5, 7, 9): 0%
Time to death of all animals (L1210 leukemia [1]; AraC treatment control, 50 mg/kg ip days 1, 3, 5, 7, 9): ≤ 30 days

Nc1nc(F)nc2c1ncn2[C@@H]1O[C@H](CO)[C@@H](O)[C@@H]1O [Fluda, Fludarabine, reference compound]
Long-term Survivors (%) (L1210 leukemia [2]; fludarabine 70 mg/kg ip multiple days between days 1 to 9): 0%
Time to death of all animals (L1210 leukemia [2]; fludarabine treatment control, 70 mg/kg ip): ≤ 30 days

CNC(=O)N(N(CCCl)S(C)(=O)=O)S(C)(=O)=O [VNP40101M, 1,2-Bis(methylsulfonyl)-1-(2-chloroethyl)-2-(methylaminocarbonyl) hydrazine]
Combination effect with AraC on L1210 leukemia (L1210 leukemia [3]): worked synergistically with AraC
Long-term Survivors (%) (L1210 leukemia [1]; [14]): 50%
Long-term Survivors (%) (L1210 leukemia [1]; [15]): 90%
Long-term Survivors (%) (L1210 leukemia [2]; [14]): 0%
Long-term Survivors (%) (L1210 leukemia [2]; [15]): 40%
Increase in life span compared to control mice ([4]; 6 mg/kg/d IP daily for 6 days (total dose 36 mg/kg)): 333%
Cure ([4]; 12-18 mg/kg/d IP daily for 6 days (total doses 72-108 mg/kg)): 100 % of animals
Delayed toxic deaths ([4]; d×6 schedule, total doses up to 108 mg/kg): not observed
Myelosuppression at doses producing long-term survival ([4]; non-tumor-bearing mice): only modestly myelosuppressive
Time of toxic deaths after treatment [4, 16]: > 50 days
Toxicity of higher single doses [4, 16]: signs of a wasting condition and death in some animals; also recorded: signs of a wasting condition and deaths
Cure (survival ≧60 days) ([4]; single dose IP 24 hours after tumor inoculation, 20-60 mg/kg (60-180 mg/m^2)): 100 % of mice
Tumor response (human U251 glioma): complete regressions
Tumor growth ([5]; 10 mg/kg q2d×10 or 20 mg/kg q4d×5 IP, tumors staged to ~150 mg): delayed tumor growth
Delay of time to reach 1 gram ([5]; 20 mg/kg q4d×5 IP): 14 days
Tumor growth (B16F10 melanoma): significant delays in tumor growth
Tumor growth [6]: significant delays in tumor growth
Tumor growth [7]: significant delays in tumor growth
Anti-tumor activity against intra-cranially implanted L1210 leukemia ([8]; IP administration): Substantial anti-tumor activity
Crossing the blood brain barrier ([8]; inferred from activity against intra-cranially implanted leukemia): good penetration through the blood-brain barrier; also recorded: effective in crossing the blood brain barrier
Cell kill of leukemia cells implanted intracranially ([8]; leukemia cells implanted intracranially): > 6.54 log cell kill
White blood cell count ([9]; 60 mg/kg, by day 4): approximately 25 % of baseline
White blood cell count ([9]; 80 mg/kg, by day 4): ~15 % of baseline
WBC recovery ([9]; 60-80 mg/kg): full recovery by day 21
White blood cell count ([9]; single IP dose 40 mg/kg (120 mg/m^2)): 50 % of baseline
Clinical signs or symptoms ([10]; 3 mg/kg (18 mg/m^2) IV d×5, day 15): no clinical signs or symptoms
Rats with lung findings ([10]; 3 mg/kg IV d×5, day 29): 2/10
Microscopic findings (lung) ([10]; 3 mg/kg IV d×5): alveolar edema, congestion, alveolar histiocytosis, and vascular thrombi
Gross necropsy findings ([10]; 10 mg/kg (60 mg/m^2) d×5, day 15): few significant gross necropsy findings
Effects on serum chemistries ([10]; 10 mg/kg dose group, day 29): decreases in total protein and albumin
Animals with thoracic cavity fluid ([10]; 10 mg/kg d×5, sacrificed on day 29): approximately 50 % of animals
Animals with thoracic cavity fluid ([10]; 10 mg/kg d×5, sacrificed on days 30/31): 6/6
Myelosuppression ([10]; doses as high as 10 mg/kg d×5): not observed
Clinical signs and symptoms ([11]; 1 mg/kg (20 mg/m^2) IV d×5): minimal clinical signs and symptoms
Leukopenia ([11]; 1 mg/kg IV d×5, recovered to baseline by day 15): mild leukopenia on day 8
Leukopenia ([11]; 3 mg/kg IV d×5): marked leukopenia by day 8
Clinical signs ([11]; 3 mg/kg IV d×5, sacrifice on day 8): marked clinical signs
Tolerability ([11]; single IV doses 1 and 3 mg/kg, at least 21 days of observation): well-tolerated
Clinical signs ([11]; single IV doses 10 and 30 mg/kg (200 and 600 mg/m^2)): marked clinical signs
Dose-limiting non-hematologic toxicities ([12]; 3-305 mg/m^2): No dose-limiting non-hematologic toxicities were observed
Maximum tolerated dose (MTD) ([12]; IV infusion over 15-30 minutes every 4-6 weeks): 305 mg/m^2
Platelet nadir ([12]; MTD 305 mg/m^2): 25 to 33 days
Patients with grade 3 thrombocytopenia ([12]; among seven patients treated at the MTD (305 mg/m^2)): six
Recovery of hematologic toxicities to ≦ grade 1 ([12]; human, in vivo): 32-45 days
Patients with ≧grade 2 granulocytopenia ([12]; patients treated at the MTD (305 mg/m^2)): Five
Clinical response ([13]; 220 mg/m^2, heavily pre-treated patient with AML): substantial clearing of marrow blasts
Clinical response ([13]; 300 mg/m^2 single course, one previously untreated patient with high-risk myelodysplasia): complete response by day 28
Clinical response ([13]; 532 mg/M^2, patient with AML, by day 28): reduction in marrow blasts
Duration of prolonged marrow aplasia ([13]; 708 mg/m^2, one of seven patients): > 80 days
Peripheral blood blasts ([13]; all dose levels (220-708 mg/m^2)): reduced peripheral blood blasts at least transiently in most patients
Infusion-related reaction ([13]; doses ≧400 mg/m2): transient infusion-related syndrome
Dose-limiting non-hematologic toxicities ([13]; through the dose of 708 mg/m^2): no dose-limiting non-hematologic toxicities were observed
